Data on 40 compounds can be found in the Deep4Chem optical property database.

The data set in a line: solvent given as SMILES.

As to `CCCCN(CCCC)c1ccc(C#Cc2cc(C#Cc3ccc(N(CCCC)CCCC)cc3)c(C#Cc3c(F)c(F)c(F)c(F)c3F)cc2C#Cc2c(F)c(F)c(F)c(F)c2F)cc1`, the emission maximum is, setting by setting: (in ClCCl) 555 nm; (in c1ccccc1) 512 nm.

With `COc1ccc2c3ccc(OC)cc3n(-c3cc(Cl)c([C](c4c(Cl)cc(Cl)cc4Cl)c4c(Cl)cc(Cl)cc4Cl)c(Cl)c3)c2c1`, where the note is “in C1CCCCC1”, the emission maximum came to 638 nm.

In the case of `O=C1NC(=O)c2c1c1c3ccccc3[nH]c1c1[nH]c3ccccc3c21`, the emission maximum reads like this: (in C1CCOC1) 475 nm; (in CC#N) 500 nm; (in CC(C)OC(C)C) 450 nm; (in CCCCOCCCC) 461 nm; (in CCO) 550 nm; (in CCOC(C)=O) 473 nm. In addition, the emission maximum reads like this: (in CN(C)C=O) 503 nm; (in Cc1ccccc1) 465 nm; (in ClCCl) 492 nm.

For the setting “in ClCCl”, `Cc1ccc(/N=C2/C3=c4[nH]c5ccccc5c4=[N+](c4ccc(C)cc4)[B-](F)(F)N3c3ccccc32)cc1` registered an emission maximum of 756 nm.

As for `c1ccc2c(c1)-c1ccccc1C21c2cc(-c3ccc4ccc5cccc6ccc3c4c56)ccc2-c2ccc(-c3ccc4ccc5cccc6ccc3c4c56)cc21`, under “in ClC(Cl)Cl”, the emission maximum was found to be 421 nm.

Regarding `c1ccc2c(-c3c4ccccc4c(-c4ccc(-n5c6ccccc6c6ccccc65)cc4)c4ccccc34)cccc2c1`, for the setting “in ClCCl”, the emission maximum was found to be 421 nm.

Consider `CN(C)c1c2ccccc2cc2ccccc12`, for which the emission maximum worked out at 391 nm (in C1CCCCC1); 392 nm (in C1CCOC1); 392 nm (in C1COCCO1); 390 nm (in CC#N); 389 nm (in CCO); 392 nm (in CN(C)C=O). Besides, the emission maximum stood at 389 nm (in CO); 392 nm (in COCCOC); 395 nm (in CS(C)=O); 390 nm (in O); 393 nm (in OCC(O)CO); 392 nm (in OCCO).

As for `CCN(CC)c1ccc2c(c1)oc(=O)c1c(=O)oc3cc(C#Cc4ccc(C#N)cc4)ccc3c12`, the emission maximum is, setting by setting: (in CS(C)=O) 625 nm; (in ClCCl) 572 nm.

On to `c1ccc(-c2nc(-c3ccccc3)nc(-c3ccc(-c4ccc5c(c4)C4(c6ccccc6-c6ccccc64)c4cc(-c6ccc(-c7nc(-c8ccccc8)nc(-c8ccccc8)n7)cc6)ccc4N5c4ccccc4)cc3)n2)cc1`, for which the emission maximum (in c1cc(-c2cccc(-n3c4ccccc4c4ccccc43)c2)cc(-n2c3ccccc3c3ccccc32)c1) amounted to 469 nm.

Compound `N#C/C(=C\c1ccc(C(F)(F)F)cc1)c1nc(-c2ccc(Cl)cc2)cs1` came in with an emission maximum (in CC#N) of 490 nm.

`S=P1(c2ccccc2)c2cccc3c4c5ccccc5c5ccccc5c4c4ccc1n4c23` (stereo not drawn) had an emission maximum (in ClCCl) of 493 nm.

Turning to `CN(C)c1ccc(C(=O)c2ccccc2)cc1`, the emission maximum is recorded as 462 nm (in C1CCCCC1); 602 nm (in CC#N); 480 nm (in CO); 609 nm (in CS(C)=O); 497 nm (in c1ccccc1).

With `CNCCCN1c2ccccc2CCc2ccccc21`, the emission maximum came out at 348 nm (in CC#N), 356 nm (in CO) and 400 nm (in O).

With `CC(C)(C)c1ccc2c(c1)c1cc(C(C)(C)C)ccc1n2-c1ccc(C#Cc2ccc3c4ccc(C#Cc5ccc(C=O)cc5)cc4n(-c4ccc(C(F)(F)F)cc4)c3c2)cc1`, the emission maximum (in ClCCl) worked out at 422 nm.

As to `C[C@]12C(=O)NC(=O)N([C@H]3CC(O)[C@@H](CO)O3)[C@H]1[C@H]1Oc3cc4oc(=O)ccc4cc3[C@H]12` (stereo partly drawn), the emission maximum is, setting by setting: (in CC(C)O) 428 nm; (in CCO) 432 nm; (in CCOCC) 410 nm; (in CO) 446 nm; (in O) 465 nm.

In turn, `Cc1ccc2nc(/C=C/c3ccc(N(C)C)cc3)c(-c3ccccc3)nc2c1` had an emission maximum (in C1COCCO1) of 528 nm, an emission maximum (in CC#N) of 614 nm and an emission maximum (in ClCCl) of 571 nm.

Where the note is “in ClC(Cl)Cl”, `C[Si]1(C)O[Si](C)(C)c2cc3cc4c(cc3cc21)C(=O)c1cc2cc3c(cc2cc1C4=O)[Si](C)(C)O[Si]3(C)C` had an emission maximum of 437 nm.

As for `CCCCCCOc1cc(/C=C/c2cc(OCCCCCC)c(/C=C/c3cc(OCCCCCC)c(/C=C4\C(=O)c5ccccc5C4=C(C#N)C#N)cc3OCCCCCC)cc2OCCCCCC)c(OCCCCCC)cc1/C=C1\C(=O)c2ccccc2C1=C(C#N)C#N`, the emission maximum (in ClCCl) worked out at 765 nm.

With `CC(=O)c1c2c(cc3ccc(N(C)C)cc13)CCC2`, the emission maximum runs as follows: (in C1CCCCC1) 466 nm; (in C1CCOC1) 497 nm; (in C1COCCO1) 495 nm; (in CC#N) 529 nm; (in CCO) 578 nm; (in CS(C)=O) 536 nm. The emission maximum (in Cc1ccccc1) is 490 nm, the emission maximum (in ClC(Cl)Cl) was 516 nm and the emission maximum (in ClCCl) was found to be 510 nm.

The compound `CC[N+]1(CC)CN2C(=N1)C(C(=O)O)=Cc1cc(OC)c(OC)cc12` yielded an emission maximum (in O) of 472 nm.

Under “in ClCCl”, `Cc1cc(C)c(B2c3cc(C)ccc3N3c4ccc(C)cc4B(c4c(C)cc(C)cc4C)c4cc(C)cc2c43)c(C)c1` showed an emission maximum of 484 nm.

Take `O=C(O)CCCCCn1c2ccccc2c(=O)c2cc(S(=O)(=O)O)ccc21`: the emission maximum (in O) was 428 nm.

On to `CC1=CC(C)=[N+]2C1=C(c1ccc(Br)cc1)c1c(C)cc(/C=C/c3ccc[nH]3)n1[B-]2(F)F`, for which, for the setting “in ClCCl”, the emission maximum is 613 nm.

`C(=C\c1nc2c(c(N3CCOCC3)n1)CCCC2)/c1ccccc1`: the emission maximum (in ClCCl) is 333 nm.

As to `CCCCCCCCCCCCCCCCCCN1C(=O)c2cccc3c(OCCN(C)C)ccc(c23)C1=O`, the emission maximum reads like this: (in CC#N) 514 nm; (in CC(C)=O) 507 nm; (in CCO) 510 nm; (in CCOC(C)=O) 497 nm; (in CCOCC) 492 nm; (in CN(C)C=O) 516 nm. For the same compound, the emission maximum (in ClCCl) was determined as 502 nm.

`N[C@@H](Cn1nnc2cc(-c3ccc(-c4ccsc4)cc3)ccc21)C(=O)O` came in with an emission maximum (in CO) of 384 nm.

With `Nc1ccc2c(c1)C(=O)c1ccccc1-2`, the emission maximum runs as follows: (in C1CCCCC1) 569 nm; (in c1ccccc1) 622 nm.

As for `Cc1ccc(-c2c3ccc([nH]3)c3nc(c(-c4ccc([N+](=O)[O-])cc4)c4ccc([nH]4)c4ccc([nH]4)c(-c4ccc(C)cc4)c4ccc2o4)C=C3)cc1`, the emission maximum by setting is: (in C1CCOC1) 758 nm; (in Cc1ccccc1) 737 nm; (in c1ccccc1) 737 nm.

On to `CCCCCCc1ccc(-n2c3c4cccc(OC)c4nc(-c4ccc(C)cc4)c3c3c2c2c(-c4ccc(C)cc4)nc4c(OC)cccc4c2n3-c2ccc(CCCCCC)cc2)cc1`, for which, under “in ClC(Cl)Cl”, the emission maximum amounted to 464 nm.

`CC1(C)Nc2cc3nc4cc(Cl)c(Cl)cc4nc3cc2N1` displayed an emission maximum (in CCO) of 506 nm.

As for `CC[N+](CC)=c1ccc2c(-c3ccccc3C(=O)O)c3cc4c(-c5ccccc5C(=O)O)c5ccc(=[N+](CC)CC)cc-5oc4cc3oc-2c1`, the emission maximum (in ClC(Cl)Cl) is listed as 622 nm.

`O=Cc1ccc(-c2ccc(C3=CCCCC3)s2)s1` showed an emission maximum (in C1CCOC1) of 467 nm; an emission maximum (in CC#N) of 485 nm; an emission maximum (in CCCCCC) of 444 nm; an emission maximum (in CCO) of 498 nm; an emission maximum (in OCCOCCO) of 508 nm; an emission maximum (in c1ccncc1) of 483 nm.

Take `CCCCn1c2ccc(-c3ccc4c(c3)c3c5c(ccc6ccccc65)ccc3n4CCCC)cc2c2c3c(ccc4ccccc43)ccc21`: the emission maximum (in ClCCl) came to 437 nm.

For the setting “in CO”, `C1=CN2C[n+]3cccc(OCc4ccccc4)c3N=C2C(OCc2ccccc2)=C1` yielded an emission maximum of 487 nm.

With `CCN(CC)c1ccc(/C=N/c2cc3nc4ccccc4nc3cc2/N=C/c2ccc(N(CC)CC)cc2O)c(O)c1`, the emission maximum runs as follows: (in CC#N) 551 nm; (in CN(C)C=O) 599 nm; (in ClCCl) 568 nm.

In the case of `CCn1c2ccc(/C=C/c3ccc4c(c3)c3cc(-c5nc6ccccc6s5)ccc3n4CC)cc2c2cc(-c3nc4ccccc4s3)ccc21`, the emission maximum runs as follows: (in C1CCOC1) 408 nm; (in CC#N) 491 nm; (in CCOC(C)=O) 412 nm; (in CN(C)C=O) 449 nm; (in ClCCl) 442 nm.

As for `COc1ccc(-n2c(C)ccc2C)cc1`, the emission maximum is, setting by setting: (in CC#N) 421 nm; (in CCCCCC) 336 nm.

Regarding `CC(C)(C)c1ccc(-c2nc3c4ccc(-c5cccc6ccccc56)cc4c4cc(-c5cccc6ccccc56)ccc4c3n2-c2ccc(C(C)(C)C)cc2)cc1`, the emission maximum reads like this: (in C1CCOC1) 386 nm; (in C1COCCO1) 385 nm; (in CC#N) 391 nm; (in CCCCCC) 381 nm; (in CCCCOCCCC) 383 nm; (in CCN(CC)CC) 382 nm. In addition, the emission maximum is recorded as 385 nm (in CCOC(C)=O); 382 nm (in CCOCC); 394 nm (in CN(C)C=O); 385 nm (in Cc1ccccc1); 386 nm (in ClC=C(Cl)Cl); 388 nm (in ClCCl).

Turning to `Cc1cccc(C)c1-c1cc2c(C)c3c4cc5nc6cc7c(cc6nc5cc4c3c(C)c2cc1-c1c(C)cccc1C)c1c(C)c2cc(-c3c(C)cccc3C)c(-c3c(C)cccc3C)cc2c(C)c71`, under “in ClC(Cl)Cl”, the emission maximum came out at 523 nm.

On to `CCCCCCCCCCCCCCCCCCOC(=O)/C=C/C1=CC2=C(c3c(C)cc(C)cc3C)c3cccn3[B-](F)(F)[N+]2=C1`, for which the emission maximum (in ClCCl) is reported as 569 nm.
